Laboratory results published in patent US7067633B2, “Targeting cellular entry, cell survival, and pathogenicity by dynein light chain 1/PIN in human cells” (Board of Regents, The University of Texas System, priority 2003, dated 2006).

Assays:
Assay type in all cases: cell-based, human
[1] = system: Pak1; experiment: Pak1 kinase activity in cell lysates; details: Ishikawa cells
Description: (§1) FIGS. 20A–20L—Pak1 activation confers tamoxifen-resistance. FIG. 20A: Pak1 activation promoted ER-transactivation function.

[2] = system: Pak1; experiment: Pak1 protein expression by immunoblot
Description: as §1

[3] = system: DLC1 promoter; experiment: DLC1 promoter luciferase reporter; details: Ishikawa cells, 24 h
Description: FIGS. 21A–21J—Estrogenic signals upregulate DLC1 expression via Pak1 pathway. FIG. 21A: DLC1 upregulation by E2 or Tam. MCF-7/Tam-sen, MCF-7/TAMR1 and Ishikawa cells were treated with E2 (10^−9M) or Tam (10^−9M) for 24 h, and cell lysates were assayed for DLC1 and Pak1 protein expression. FIG. 21B: Upregulation of DLC1 mRNA in MCF-7 cells treated with different doses of E2 for 24 h. FIG. 21C: Effect of different periods of E2 treatment and cycloheximide (CHX) and Actinomycin D (ACTD) treatment on the ability of E2 to upregulate DLC1 mRNA in MCF-7 cells. FIG. 21D: DLC1 mRNA and protein levels in MCF-7/DA-Pak1 cells by Northern and Western blotting. FIG. 21E: DLC1 mRNA and protein levels in MCF-7/DN-Pak1 cells by Northern and Western blotting. FIG. 21F: Downregulation of DLC1 protein expression in MCF-7 cells treated with Pak1-siRNA for 24 h. FIG. 21G: Modulation of DLC1 promoter (1245 bp) luc activity by the expression of wtPak1 or DN-Pak1. MCF-7 cells were transfected with DLC1-luc and transfected with either wtPak1 or Pak1 inhibitor 83-149 and luc activity was measured after 24 h. FIG. 21H: Upregulation of DLC1 promoter luc activity following pak1 induction in MCF-7/DA-Pak 1 cells. FIG. 21I: Downegulation of DLC1 promoter luc activity in MCF-7/DN-pak1 cells. […]

[4] = system: pS2 gene chromatin; experiment: Chromatin immunoprecipitation (ChIP), pS2 promoter; details: DLC1 overexpression in MCF-7/DLC1 cells
Description: FIG. 14A: Characterization of MCF-7 cells expressing T7-DLC1 under a tet-inducible promoter. Time and dose dependent upregulation of Dox-mediated T7-DLC1 expression. FIG. 14B: DLC1 deregulation potentiates stimulation of Bcl-2 by E2 and by Tam. […] FIG. 14C: DLC1 upregulation suppress Tam ability to inhibit E2-mediated ER transactivation. MCF-7/DLC1 cells were transfected with ERE-luc. […] FIG. 14D: DLC1 deregulation potentiated E2-mediated stimulation of ERE-luc activity in Ishikawa and MCF-7/TAMR1 cells. […] FIG. 14E: Recruitment of DLC1 and ERá to the pS2 promoter chromatin. MCF-7/DLC1 cells were treated with or without Dox for 24 and then with E2 (10^−9M) for 1 h. Chromatin lysates were immunoprecipitated with anti-ER-á or anti-T7 (to detect T7-DLC1) antibodies. Upper panels show the PCR analysis of 304 bp pS2 promoter fragment associated with ER or T7-DLC1.
To delineate the significance of the DLC1 in the modulation of ER transactivation, the effect of T7-DLC1 deregulation on the recruitment of ER to the ER-target pS2 gene promoter chromatin using a chromatin immunoprecipitation (ChIP) assay with anti-ERα or anti-T7 antibodies was examined. […] When the above ChIP studies were repeated using T7 antibody to isolate T7-DLC1, it was observed that both basal and ligand-activated DLC1 were also recruited to pS2 gene chromatin (FIG. 14E). […]

DLC1 promoter activity [3]: stimulated
SMILES: CC/C(=C(\c1ccccc1)c1ccc(OCCN(C)C)cc1)c1ccccc1 [tamoxifen]
Pak1 kinase activity [1]: upregulated
Pak1 protein expression ([2]; Ishikawa cells, long-term treatment): increase
levels of Pak1 protein ([2]; MCF-7 cells): no effect
ER interaction with the pS2 gene chromatin [4]: enhanced ER interaction
